Measured values as given in ChEMBL document CHEMBL4011590, “Structure-activity relationship studies on 3,5-dinitrophenyl tetrazoles as antitubercular agents” (Eur J Med Chem, 2017).
Converted amounts (≈) assume the structure as drawn.

Columns and labels:
Format in all cases: functional
[1] = test system: Mycobacterium tuberculosis; test: Antimycobacterial activity against clinical isolates of multidrug resistant/extensively drug resistant Mycobacterium tuberculosis Praha 1 after 14 days by micromethod; conditions: Praha 1, 336 h
[2] = test system: Mycobacterium tuberculosis; test: Antimycobacterial activity against clinical isolates of multidrug resistant/extensively drug resistant Mycobacterium tuberculosis Praha 1 after 21 days by micromethod; conditions: Praha 1, 504 h
[3] = test system: Mycobacterium tuberculosis; test: Antimycobacterial activity against clinical isolates of multidrug resistant/extensively drug resistant Mycobacterium tuberculosis Praha 4 after 14 days by micromethod; conditions: Praha 4, 336 h
[4] = test system: Mycobacterium tuberculosis; test: Antimycobacterial activity against clinical isolates of multidrug resistant/extensively drug resistant Mycobacterium tuberculosis Praha 4 after 21 days by micromethod; conditions: Praha 4, 504 h
[5] = test system: Mycobacterium tuberculosis; test: Antimycobacterial activity against clinical isolates of multidrug resistant/extensively drug resistant Mycobacterium tuberculosis Praha 131 after 14 days by micromethod; conditions: Praha 131, 336 h
[6] = test system: Mycobacterium tuberculosis; test: Antimycobacterial activity against clinical isolates of multidrug resistant/extensively drug resistant Mycobacterium tuberculosis Praha 131 after 21 days by micromethod; conditions: Praha 131, 504 h
[7] = test system: Mycobacterium tuberculosis; test: Antimycobacterial activity against clinical isolates of multidrug resistant/extensively drug resistant Mycobacterium tuberculosis 9449/2007 after 14 days by micromethod; conditions: 9449/2007, 336 h
[8] = test system: Mycobacterium tuberculosis; test: Antimycobacterial activity against clinical isolates of multidrug resistant/extensively drug resistant Mycobacterium tuberculosis 9449/2007 after 21 days by micromethod; conditions: 9449/2007, 504 h
[9] = test system: Mycobacterium tuberculosis; test: Antimycobacterial activity against clinical isolates of multidrug resistant/extensively drug resistant Mycobacterium tuberculosis 234/2005 after 14 days by micromethod; conditions: 234/2005, 336 h
[10] = test system: Mycobacterium tuberculosis; test: Antimycobacterial activity against clinical isolates of multidrug resistant/extensively drug resistant Mycobacterium tuberculosis 234/2005 after 21 days by micromethod; conditions: 234/2005, 504 h
[11] = test system: Mycobacterium tuberculosis; test: Antimycobacterial activity against clinical isolates of multidrug resistant/extensively drug resistant Mycobacterium tuberculosis 7357/1998 after 14 days by micromethod; conditions: 7357/1998, 336 h
[12] = test system: Mycobacterium tuberculosis; test: Antimycobacterial activity against clinical isolates of multidrug resistant/extensively drug resistant Mycobacterium tuberculosis 7357/1998 after 21 days by micromethod; conditions: 7357/1998, 504 h
[13] = test system: Mycobacterium tuberculosis; test: Antimycobacterial activity against clinical isolates of multidrug resistant/extensively drug resistant Mycobacterium tuberculosis 8666/2010 after 14 days by micromethod; conditions: 8666/2010, 336 h
[14] = test system: Mycobacterium tuberculosis; test: Antimycobacterial activity against clinical isolates of multidrug resistant/extensively drug resistant Mycobacterium tuberculosis 8666/2010 after 21 days by micromethod; conditions: 8666/2010, 504 h

Structure (SMILES)	MIC [1]	MIC [2]	MIC [3]	MIC [4]	MIC [5]	MIC [6]	MIC [7]	MIC [8]	MIC [9]	MIC [10]	MIC [11]	MIC [12]	MIC [13]	MIC [14]
O=[N+]([O-])c1cc(-c2nnn(Cc3ccccc3)n2)cc([N+](=O)[O-])c1	1 µM (≈ 0.326 µg/mL)	1 µM (≈ 0.326 µg/mL)	1 µM (≈ 0.326 µg/mL)	1 µM (≈ 0.326 µg/mL)	1 µM (≈ 0.326 µg/mL)	1 µM (≈ 0.326 µg/mL)	1 µM (≈ 0.326 µg/mL)	1 µM (≈ 0.326 µg/mL)	1 µM (≈ 0.326 µg/mL)	1 µM (≈ 0.326 µg/mL)	1 µM (≈ 0.326 µg/mL)	1 µM (≈ 0.326 µg/mL)	–	–
O=[N+]([O-])c1cc(-c2nnn(Cc3cccc(Br)c3)n2)cc([N+](=O)[O-])c1	0.5 µM (≈ 0.203 µg/mL)	0.5 µM (≈ 0.203 µg/mL)	0.5 µM (≈ 0.203 µg/mL)	1 µM (≈ 0.405 µg/mL)	0.5 µM (≈ 0.203 µg/mL)	1 µM (≈ 0.405 µg/mL)	0.25 µM (≈ 0.101 µg/mL)	0.5 µM (≈ 0.203 µg/mL)	0.25 µM (≈ 0.101 µg/mL)	0.5 µM (≈ 0.203 µg/mL)	0.5 µM (≈ 0.203 µg/mL)	0.5 µM (≈ 0.203 µg/mL)	0.25 µM (≈ 0.101 µg/mL)	0.5 µM (≈ 0.203 µg/mL)
O=[N+]([O-])c1cc(-c2nnn(CSc3nnnn3-c3ccc(Cl)cc3)n2)cc([N+](=O)[O-])c1	0.03 µM (≈ 0.0138 µg/mL)	0.06 µM (≈ 0.0276 µg/mL)	0.03 µM (≈ 0.0138 µg/mL)	0.03 µM (≈ 0.0138 µg/mL)	0.03 µM (≈ 0.0138 µg/mL)	0.03 µM (≈ 0.0138 µg/mL)	0.03 µM (≈ 0.0138 µg/mL)	0.03 µM (≈ 0.0138 µg/mL)	0.03 µM (≈ 0.0138 µg/mL)	0.06 µM (≈ 0.0276 µg/mL)	0.03 µM (≈ 0.0138 µg/mL)	0.03 µM (≈ 0.0138 µg/mL)	–	–
O=[N+]([O-])c1cc(-c2nnn(CSc3nnnn3-c3ccc(Br)cc3)n2)cc([N+](=O)[O-])c1	0.03 µM (≈ 0.0152 µg/mL)	0.03 µM (≈ 0.0152 µg/mL)	0.03 µM (≈ 0.0152 µg/mL)	0.03 µM (≈ 0.0152 µg/mL)	0.03 µM (≈ 0.0152 µg/mL)	0.03 µM (≈ 0.0152 µg/mL)	0.03 µM (≈ 0.0152 µg/mL)	0.03 µM (≈ 0.0152 µg/mL)	0.03 µM (≈ 0.0152 µg/mL)	0.03 µM (≈ 0.0152 µg/mL)	0.03 µM (≈ 0.0152 µg/mL)	0.03 µM (≈ 0.0152 µg/mL)	–	–
O=[N+]([O-])c1cc(-c2nnn(CSc3nnnn3-c3ccc(Cl)c(Cl)c3)n2)cc([N+](=O)[O-])c1	0.03 µM (≈ 0.0149 µg/mL)	0.03 µM (≈ 0.0149 µg/mL)	0.03 µM (≈ 0.0149 µg/mL)	0.03 µM (≈ 0.0149 µg/mL)	0.03 µM (≈ 0.0149 µg/mL)	0.03 µM (≈ 0.0149 µg/mL)	0.03 µM (≈ 0.0149 µg/mL)	0.03 µM (≈ 0.0149 µg/mL)	0.03 µM (≈ 0.0149 µg/mL)	0.03 µM (≈ 0.0149 µg/mL)	0.03 µM (≈ 0.0149 µg/mL)	0.03 µM (≈ 0.0149 µg/mL)	–	–
O=[N+]([O-])c1cc(-c2nnn(Cc3cccc(F)c3)n2)cc([N+](=O)[O-])c1	1 µM (≈ 0.344 µg/mL)	1 µM (≈ 0.344 µg/mL)	1 µM (≈ 0.344 µg/mL)	1 µM (≈ 0.344 µg/mL)	1 µM (≈ 0.344 µg/mL)	1 µM (≈ 0.344 µg/mL)	1 µM (≈ 0.344 µg/mL)	1 µM (≈ 0.344 µg/mL)	1 µM (≈ 0.344 µg/mL)	1 µM (≈ 0.344 µg/mL)	1 µM (≈ 0.344 µg/mL)	1 µM (≈ 0.344 µg/mL)	1 µM (≈ 0.344 µg/mL)	1 µM (≈ 0.344 µg/mL)
